The test system of one assay is IRF3/NF-κB translocation. Briefly: Immunofluorescence of IRF3/NF-κB translocation in FHC treated with DMH/AOM. It is filed as cell-based, human. The following applies: 3 mM for 48 hours. How it is done:
FIGS. 8A-8C show fluorescence microscopy analysis (related to FIG. 1) of DAPI staining in WT and SKO MEFs treated with 3 mM of AOM of 3 mM of DMH (FIG. 8A) and anti-dsDNA staining and the ration of cytoplasm to nucleus (FIG. 8B) in Human normal colon epithelial cells (FHC) treated with 3 mM of AOM or 3 mM of DMH for 48 hours. (FIG. 8C) Immunofluorescence microscopy analysis of FHC treated with AOM and DMH sane as FIG. 8A for 48 hours using p65 or IRF3 antibody. Images shown at original magnification, 160×.
To start determining the mechanisms underlining the cause of DMH/AOM-induced STING activity, MEF or FHC cells were treated with these drugs and observed by two different approaches, DAPI staining and immunofluorescence (IF) using anti-dsDNA antibody, the leakage of DNA into the cytosol (FIGS. 8A and 8B). Cytosolic DNA activates STING and stimulates STING/TBK1 trafficking via autophagy to endosomal regions harboring the transcription factors IRF3 and NF-κB, which triggers cytokine production. […]
Cells were cultured and treated in their appropriate media on Lab-Tek II chamber slides. […] Immunostaining was performed with rabbit-anti-STING polyclonal followed by fluorescence conjugated secondary antibodies (FITC-goat-anti-rabbit) (Invitrogen). […]

Assay [1] concerns STING-dependent genes in murine embryonic fibroblasts. Briefly: Gene array and qPCR of WT and SKO MEFs treated with AOM or DMH. The class given is cell-based, mouse. The following applies: WT and SKO MEFs; DMH 1 mM for 8 hours. How it is done:
FIGS. 1A-1E show activation of STING-dependent genes by azoxymethane (AOM) (FIG. 1A) Gene array analysis of Wild type (WT) and STING deficient (SKO) mouse embryonic fibroblasts (MEFs) treated with AOM at 0.14 mM for 8 hours (Left) and 1,2-dimethylhydrazine (DMH) at 1 mM for 8 hours (Right). Highest variable genes are shown. Rows represent individual genes; columns represent individual samples. Grayscale indicates transcript levels below, equal to, or above the mean. Scale represents the intensity of gene expression (log 2 scale ranges between −2.4 and 2.4). (FIG. 1B) qPCR analysis of Cxcl10 and Ifit3 in MEFs treated with AOM and DMH same as FIG. 1A. (FIG. 1C) qPCR analysis of Cxcl10 in Human epithelial cell (FHC) treated with AOM and DMH at 1 mM for 24 hours. (FIG. 1D) FHC cells were transfected with STING or control siRNA for 72 hours followed by AOM and DMH treatment same as FIG. 1C, and were then subjected to Cxcl0 mRNA expression (Left). STING expression level after siRNA treatment was determined by qPCR (Right). […] (FIG. 1E) STING Immunohistochemistry staining of the colon tissue from WT and SKO mice (Left) and Human. All images were shown at original magnification, 200×.
Towards these objectives, the AOM/DSS model, as described above, was utilized and analyzed the effects of AOM and precursor DMH upon STING signaling. Principally, wild type (WT) or STING-deficient (SKO) murine embryonic fibroblasts (MEF) were treated in vitro with DMH or metabolite AOM for 8 hours and microarray analysis performed to analyze the consequences to gene expression. […] The observed STING-dependent gene expression was confirmed following RT-PCR analysis of select mRNA such as Cxcl10 and IFIT3 (FIG. 1B). […] Thus, the DNA damaging agent DMH/AOM can invoke STING-dependent signaling.
Total RNA was isolated from cells or tissues with RNeasy Mini kit (74104, Qiagen, Valencia, Calif.). RNA quality was analyzed by Bionalyzer RNA 6000 Nano (Agilent Technologies, Santa Clara Calif.). […]

Another assay concerns type I IFN production. Briefly: IFNB induction (qPCR) in normal and colon cancer cells treated with AOM or DMH. It is filed as cell-based, human. Particulars: 15 mM for 20 hours. How it is done:
FIG. 22. Normal and colon cancer cells were treated with AOM or DMH at 15 mM for 20 hours. IFNB induction was analyzed by qPCR. STING, IRF3 and NF-kB translocation was examined: +, translocation; −, no translocation.
The question arises as to why the STING-signaling pathway may be inhibited in colon adenocarcinoma. Recently, it was shown that STING-deficient cells and mice are sensitive to AOM-induced DNA damage. In this situation, the STING pathway may play a role in the DNA-damage response pathway, to induce the production of cytokines which facilitate tissue repair or damaged cell removal (Chatzinikolaou et al., 2014; Kidane et al., 2014; Lord and Ashworth, 2012). As such, innate immune induction of CA cells in response to DNA damaging agents was examined. […] Thus, the inhibition of the STING pathway may enable DNA damaged cells, harboring mutations, to escape part of the DNA damage response and the immune surveillance machinery to progress into a tumorigenic state.
In general terms: Real-time PCR tracks product formation cycle by cycle.

The structures appear in SMILES notation.

For the compound `CNNC` [DMH, 1,2-dimethylhydrazine], in the assay on IRF3/NF-κB translocation, the “translocation of IRF3/NF-κB” value was “could instigate the translocation of IRF3/NF-κB”. For the same compound, in assay [1], the STING-dependent gene expression result is given as “A similar effect was observed”. Also, the “production of type I IFN” value in the assay on type I IFN production (CA cells with defective STING activated IRF3 or NF-kB activity) was “unable to generate type I IFN”; in the assay with type I IFN production (normal colon epithelial (CCD841) and LS123), “able to induce the production of type I IFN”.

(Values after patent US10821142B2, “Cancer treatment and diagnosis” (priority 2015, dated 2020).)
